Assay results: ChEMBL document CHEMBL4368907 (J Med Chem, 2019)
Blank lines part the entries; values can stand above or below the molecule they belong to. Numbered stars: 1 amine (or outer) side, 2 acyl side, 3 side chain; on linkers, the order of the positions; unused ones are H or OH. Square brackets hold non-standard residues; d marks the D form. Peptide text beside a SMILES is read from it. * marks the point of attachment. Phe(4-CH2SO3H) = N[C@@H](Cc1ccc(CS(=O)(=O)O)cc1)C(=O)O; C20 diacid = O=C(O)CCCCCCCCCCCCCCCCCCC(=O)*; sY = N[C@@H](Cc1ccc(OS(=O)(=O)O)cc1)C(=O)O; C18 diacid = O=C(O)CCCCCCCCCCCCCCCCC(=O)*; γGlu = O=C(O)[C@H](CCC(=O)[*:2])N[*:1]; 1Nal = N[C@@H](Cc1cccc2ccccc12)C(=O)O; Glutaryl = O=C(CCCC(=O)[*:2])[*:1]; Hyp = O=C(O)[C@@H]1C[C@@H](O)CN1; NMeF = CN[C@@H](Cc1ccccc1)C(=O)O; NMeD = CN[C@@H](CC(=O)O)C(=O)O; dNMeD = CN[C@H](CC(=O)O)C(=O)O; Nle = CCCC[C@H](N)C(=O)O; Dap = NC[C@H](N)C(=O)O; AEEA = NCCOCCOCC(=O)O; βAla = NCCC(=O)O

Legend:
[1] = Terminal half life in Ellegaard Gottingen minipig at 5 nmol/kg, iv by LC-MS/MS analysis; format: ADME, organism-based, Sus scrofa; details: pig, in vivo, read-out: beta t1/2 (converted)
[2] = target: T1, Cholecystokinin receptor type A (Homo sapiens, UniProt P32238); test: Agonist activity at human CCK1R expressed in human 1321N1 cells assessed as IP1 accumulation after 1 hr by HTRF assay; format: functional, cell-based
T1 sequence (P32238 whole entry): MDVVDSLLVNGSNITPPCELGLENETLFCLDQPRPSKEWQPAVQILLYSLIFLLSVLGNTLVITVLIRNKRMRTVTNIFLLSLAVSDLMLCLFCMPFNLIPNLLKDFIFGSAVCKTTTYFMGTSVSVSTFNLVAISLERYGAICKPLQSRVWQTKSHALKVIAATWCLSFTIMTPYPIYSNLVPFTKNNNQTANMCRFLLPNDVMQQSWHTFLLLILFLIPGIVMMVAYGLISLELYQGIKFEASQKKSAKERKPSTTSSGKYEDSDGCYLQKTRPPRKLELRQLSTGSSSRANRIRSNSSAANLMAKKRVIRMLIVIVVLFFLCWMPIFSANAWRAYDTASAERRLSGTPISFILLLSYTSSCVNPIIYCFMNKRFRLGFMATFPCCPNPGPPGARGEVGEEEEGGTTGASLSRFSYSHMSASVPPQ

[3] = target: T1, Cholecystokinin receptor type A; test: Displacement of [125I]-CCK-8 from human CCK1R expressed in human 1321N1 cell membranes after 2 hrs by SPA assay
[4] = target: T2, Gastrin/cholecystokinin type B receptor (Homo sapiens, UniProt P32239); test: Agonist activity at human CCK2R expressed in human 1321N1 cells assessed as IP1 accumulation after 1 hr by HTRF assay; format: functional, cell-based
T2 sequence (P32239 whole entry): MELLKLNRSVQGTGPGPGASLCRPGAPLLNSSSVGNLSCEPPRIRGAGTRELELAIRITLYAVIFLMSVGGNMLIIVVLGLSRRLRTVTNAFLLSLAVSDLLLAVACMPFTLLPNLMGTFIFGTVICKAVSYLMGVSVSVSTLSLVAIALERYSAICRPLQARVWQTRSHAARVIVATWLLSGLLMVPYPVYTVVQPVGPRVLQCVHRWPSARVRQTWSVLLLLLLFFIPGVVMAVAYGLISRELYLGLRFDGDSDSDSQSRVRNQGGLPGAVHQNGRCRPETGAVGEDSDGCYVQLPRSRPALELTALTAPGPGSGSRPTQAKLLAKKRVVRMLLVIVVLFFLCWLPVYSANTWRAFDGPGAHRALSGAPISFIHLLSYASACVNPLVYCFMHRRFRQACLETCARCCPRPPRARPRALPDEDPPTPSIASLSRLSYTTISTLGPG

[5] = target: T2, Gastrin/cholecystokinin type B receptor; test: Displacement of [125I]-CCK-8 from human CCK2R expressed in human 1321N1 cell membranes after 2 hrs by SPA assay

half-life [1]: 153 h | EC50 [2]: 0.372 nM | IC50 [3]: 0.0407 nM
SMILES: CCCC[C@H](NC(=O)[C@H](Cc1c[nH]c2ccccc12)NC(=O)CNC(=O)[C@H](CC(C)C)NC(=O)[C@H](Cc1ccc(CS(=O)(=O)O)cc1)NC(=O)[C@H](CC(=O)O)NC(=O)COCCOCCNC(=O)COCCOCCNC(=O)CC[C@H](NC(=O)CCCCCCCCCCCCCCCCCCC(=O)O)C(=O)O)C(=O)N(C)[C@H](CC(=O)O)C(=O)N(C)[C@@H](Cc1ccccc1)C(N)=O ({C20 diacid-γGlu-AEEA-AEEA}-D[Phe(4-CH2SO3H)]LGW[Nle][dNMeD][NMeF]-NH2)

EC50 [2]: 0.166 nM | IC50 [3]: 1.26 nM | EC50 [4]: 0.295 nM | IC50 [5]: 0.158 nM
SMILES: CCCC[C@H](NC(=O)[C@H](Cc1c[nH]c2ccccc12)NC(=O)CNC(=O)[C@H](CCC(=O)O)NC(=O)[C@H](Cc1ccc(OS(=O)(=O)O)cc1)NC(=O)[C@H](CC(=O)O)NC(=O)COCCOCCNC(=O)COCCOCCNC(=O)CC[C@H](NC(=O)CCCCCCCCCCCCCCCCC(=O)O)C(=O)O)C(=O)N[C@@H](CC(=O)O)C(=O)N[C@@H](Cc1ccccc1)C(N)=O ({C18 diacid-γGlu-AEEA-AEEA}-D[sY]EGW[Nle]DF-NH2)

EC50 [2]: 0.115 nM | IC50 [3]: 0.0871 nM | EC50 [4]: 0.457 nM | IC50 [5]: 0.288 nM
SMILES: CCCC[C@H](NC(=O)[C@H](Cc1c[nH]c2ccccc12)NC(=O)CNC(=O)[C@H](CC(C)C)NC(=O)[C@H](Cc1ccc(OS(=O)(=O)O)cc1)NC(=O)[C@H](CC(=O)O)NC(=O)COCCOCCNC(=O)COCCOCCNC(=O)CC[C@H](NC(=O)CCCCCCCCCCCCCCCCC(=O)O)C(=O)O)C(=O)N[C@@H](CC(=O)O)C(=O)N(C)[C@@H](Cc1ccccc1)C(N)=O

EC50 [2]: 0.977 nM | IC50 [3]: 9.12 nM | EC50 [4]: 0.324 nM | IC50 [5]: 0.132 nM
SMILES: CCCC[C@H](NC(=O)[C@H](Cc1ccc(OS(=O)(=O)O)cc1)NC(=O)[C@H](CC(=O)O)NC(=O)COCCOCCNC(=O)COCCOCCNC(=O)CC[C@H](NC(=O)CCCCCCCCCCCCCCCCC(=O)O)C(=O)O)C(=O)NCC(=O)N[C@@H](Cc1c[nH]c2ccccc12)C(=O)N[C@@H](CCCC)C(=O)N[C@@H](CC(=O)O)C(=O)N[C@@H](Cc1ccc(O)cc1)C(N)=O ({C18 diacid-γGlu-AEEA-AEEA}-D[sY][Nle]GW[Nle]DY-NH2)

EC50 [2]: 0.0676 nM | IC50 [3]: 0.245 nM | EC50 [4]: 0.447 nM | IC50 [5]: 0.891 nM
SMILES: CCCC[C@H](NC(=O)[C@H](Cc1c[nH]c2ccccc12)NC(=O)CNC(=O)[C@H](CC(C)C)NC(=O)[C@H](Cc1ccc(CS(=O)(=O)O)cc1)NC(=O)[C@H](CC(=O)O)NC(=O)COCCOCCNC(=O)COCCOCCNC(=O)CC[C@H](NC(=O)CCCCCCCCCCCCCCCCC(=O)O)C(=O)O)C(=O)N[C@@H](CC(=O)O)C(=O)N[C@@H](Cc1ccccc1)C(N)=O ({C18 diacid-γGlu-AEEA-AEEA}-D[Phe(4-CH2SO3H)]LGW[Nle]DF-NH2)

EC50 [2]: 0.162 nM | IC50 [3]: 0.0759 nM | EC50 [4]: 0.407 nM | IC50 [5]: 0.0933 nM
SMILES: CCCC[C@H](NC(=O)[C@H](Cc1ccc(OS(=O)(=O)O)cc1)NC(=O)[C@H](CC(=O)O)NC(=O)COCCOCCNC(=O)COCCOCCNC(=O)CC[C@H](NC(=O)CCCCCCCCCCCCCCCCC(=O)O)C(=O)O)C(=O)NCC(=O)N[C@@H](Cc1c[nH]c2ccccc12)C(=O)N[C@@H](CCCC)C(=O)N[C@@H](CC(=O)O)C(=O)N[C@@H](Cc1cccc2ccccc12)C(N)=O ({C18 diacid-γGlu-AEEA-AEEA}-D[sY][Nle]GW[Nle]D[1Nal]-NH2)

EC50 [2]: 117 nM | IC50 [3]: 219 nM | EC50 [4]: 0.316 nM | IC50 [5]: 0.398 nM
SMILES: CCCC[C@H](NC(=O)[C@H](Cc1c[nH]c2ccccc12)NC(=O)CCNC(=O)[C@H](CC(C)C)NC(=O)[C@H](Cc1ccc(OS(=O)(=O)O)cc1)NC(=O)[C@H](CC(=O)O)NC(=O)COCCOCCNC(=O)COCCOCCNC(=O)CC[C@H](NC(=O)CCCCCCCCCCCCCCCCC(=O)O)C(=O)O)C(=O)N[C@@H](CC(=O)O)C(=O)N[C@@H](Cc1ccccc1)C(N)=O ({C18 diacid-γGlu-AEEA-AEEA}-D[sY]L[βAla]W[Nle]DF-NH2)

The remaining lines, values behind:

SMILES: CC(C)C[C@H](NC(=O)[C@H](Cc1ccc(OS(=O)(=O)O)cc1)NC(=O)[C@H](CC(=O)O)NC(=O)COCCOCCNC(=O)COCCOCCNC(=O)CC[C@H](NC(=O)CCCCCCCCCCCCCCCCC(=O)O)C(=O)O)C(=O)NCC(=O)N[C@@H](Cc1c[nH]c2ccccc12)C(=O)N[C@@H](Cc1ccccc1)C(=O)N(C)[C@@H](CC(=O)O)C(=O)N(C)[C@@H](Cc1ccccc1)C(N)=O ({C18 diacid-γGlu-AEEA-AEEA}-D[sY]LGWF[NMeD][NMeF]-NH2)
pEC50 [2]: 8.79 | pIC50 [3]: 7.79 | pEC50 [4]: < 6 | pIC50 [5]: < 5

SMILES: CCCC[C@H](NC(=O)[C@H](Cc1c[nH]c2ccccc12)NC(=O)CNC(=O)[C@H](CC(C)C)NC(=O)[C@H](Cc1ccc(OS(=O)(=O)O)cc1)NC(=O)[C@H](CC(=O)O)NC(=O)CCCCCCCCCCCCCCCCC(=O)O)C(=O)N(C)[C@H](CC(=O)O)C(=O)N(C)[C@@H](Cc1ccccc1)C(N)=O
half-life [1]: 2.6 h | IC50 [3]: 0.107 nM

SMILES: CCCC[C@H](NC(=O)[C@H](Cc1c[nH]c2ccccc12)NC(=O)CNC(=O)[C@H](CC(C)C)NC(=O)[C@@H](NC(=O)[C@H](CC(=O)O)NC(=O)COCCOCCNC(=O)COCCOCCNC(=O)CC[C@H](NC(=O)CCCCCCCCCCCCCCCCC(=O)O)C(=O)O)[C@@H](C)CC)C(=O)N(C)[C@@H](CC(=O)O)C(=O)N(C)[C@@H](Cc1ccccc1)C(N)=O ({C18 diacid-γGlu-AEEA-AEEA}-DILGW[Nle][NMeD][NMeF]-NH2)
pEC50 [2]: 9.41 | pIC50 [3]: 8.37 | pEC50 [4]: < 6 | pIC50 [5]: < 5

SMILES: CCCC[C@H](NC(=O)[C@H](Cc1ccc(OS(=O)(=O)O)cc1)NC(=O)[C@H](CC(=O)O)NC(=O)COCCOCCNC(=O)COCCOCCNC(=O)CC[C@H](NC(=O)CCCCCCCCCCCCCCCCC(=O)O)C(=O)O)C(=O)NCC(=O)N[C@@H](Cc1c[nH]c2ccccc12)C(=O)N[C@@H](CCCC)C(=O)N1C[C@H](O)C[C@H]1C(=O)N[C@@H](Cc1ccccc1)C(N)=O ({C18 diacid-γGlu-AEEA-AEEA}-D[sY][Nle]GW[Nle][Hyp]F-NH2)
EC50 [2]: 1.12 nM | IC50 [3]: 3.02 nM | EC50 [4]: 25.7 nM | IC50 [5]: 457 nM

SMILES: CCCC[C@H](NC(=O)[C@H](CNC(=O)CCCC(=O)O)NC(=O)[C@H](CC(=O)O)NC(=O)COCCOCCNC(=O)COCCOCCNC(=O)CC[C@H](NC(=O)CCCCCCCCCCCCCCCCC(=O)O)C(=O)O)C(=O)NCC(=O)N[C@@H](Cc1c[nH]c2ccccc12)C(=O)N[C@@H](CCCC)C(=O)N[C@@H](CC(=O)O)C(=O)N[C@@H](Cc1ccccc1)C(N)=O ({C18 diacid-γGlu-AEEA-AEEA}-D[Dap](Glutaryl)[Nle]GW[Nle]DF-NH2)
EC50 [2]: 229 nM | IC50 [3]: 832 nM | EC50 [4]: 0.38 nM | IC50 [5]: 5.75 nM

SMILES: CCCC[C@H](NC(=O)[C@H](Cc1c[nH]c2ccccc12)NC(=O)CNC(=O)[C@H](CC(C)C)NC(=O)[C@H](Cc1c[nH]c2ccccc12)NC(=O)[C@H](CC(=O)O)NC(=O)COCCOCCNC(=O)COCCOCCNC(=O)CC[C@H](NC(=O)CCCCCCCCCCCCCCCCC(=O)O)C(=O)O)C(=O)N(C)[C@@H](CC(=O)O)C(=O)N(C)[C@@H](Cc1ccccc1)C(N)=O ({C18 diacid-γGlu-AEEA-AEEA}-DWLGW[Nle][NMeD][NMeF]-NH2)
pEC50 [2]: 9.67 | pIC50 [3]: 8.57 | pEC50 [4]: < 6 | pIC50 [5]: 5.13
